# Target: T1, HDAC8 (Homo sapiens, UniProt Q9BY41)
# T1 sequence (Q9BY41 1-377): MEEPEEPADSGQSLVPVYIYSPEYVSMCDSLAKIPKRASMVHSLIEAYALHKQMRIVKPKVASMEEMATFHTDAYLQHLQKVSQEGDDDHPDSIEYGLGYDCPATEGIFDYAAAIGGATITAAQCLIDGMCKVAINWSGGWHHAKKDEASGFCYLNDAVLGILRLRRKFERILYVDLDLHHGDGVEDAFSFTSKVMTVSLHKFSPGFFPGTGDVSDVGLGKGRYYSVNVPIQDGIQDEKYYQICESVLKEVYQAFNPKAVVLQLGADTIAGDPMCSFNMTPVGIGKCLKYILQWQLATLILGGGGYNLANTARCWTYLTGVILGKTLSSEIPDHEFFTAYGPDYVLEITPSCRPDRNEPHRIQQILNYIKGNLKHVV
# Test: HDAC8 degradation in Jurkat cells, Western blot
# Conditions: Jurkat cells, 100 nM, 6 h, Western blot; n.d = no degradation
row,Compound,Degradation (%) at 100 nM (HDAC8)
1,"CCCCCCNNC(=O)c1ccc(CNC(=O)CCCCCCCCCCCNc2cccc3c2C(=O)N(C2CCC(=O)NC2=O)C3=O)cc1 (stereo not drawn) [Z7, 12-((2-(2,6-Dioxopiperidin-3-yl)-1,3-dioxoisoindolin-4-yl)amino)-N-(4-(2-Hexylhydrazine-1-carbonyl)benzyl)dodecanamide]",did not trigger visible degradation

# Same assay, conditions: Jurkat, 6 h, read-out: Degradation (%) at 100 nM (HDAC8)
row,Compound,inhibition at 0.1 µM [%]
1,"CCCCCCNNC(=O)c1ccc(CNC(=O)CCCNc2cccc3c2C(=O)N(C2CCC(=O)NC2=O)C3=O)cc1 (stereo not drawn) [Z1, 4-((2-(2,6-Dioxopiperidin-3-yl)-1,3-dioxoisoindolin-4-yl)amino)-N-(4-(2-hexylhydrazine-1-carbonyl)benzyl)butanamide]",73 ± 1
2,"CCCCCCNNC(=O)c1ccc(CNC(=O)CCCCNc2cccc3c2C(=O)N(C2CCC(=O)NC2=O)C3=O)cc1 (stereo not drawn) [Z2, 5-((2-(2,6-Dioxopiperidin-3-yl)-1,3-dioxoisoindolin-4-yl)amino)-N-(4-(2-hexylhydrazine-1-carbonyl)benzyl)pentanamide]",62 ± 2
3,"CCCCCCNNC(=O)c1ccc(CNC(=O)CCCCCNc2cccc3c2C(=O)N(C2CCC(=O)NC2=O)C3=O)cc1 (stereo not drawn) [Z3, 6-((2-(2,6-Dioxopiperidin-3-yl)-1,3-dioxoisoindolin-4-yl)amino)-N-(4-(2-hexylhydrazine-1-carbonyl)benzyl)hexanamide]",44 ± 13
4,"CCCCCCNNC(=O)c1ccc(CNC(=O)CCCCCCNc2cccc3c2C(=O)N(C2CCC(=O)NC2=O)C3=O)cc1 (stereo not drawn) [Z4, 7-((2-(2,6-Dioxopiperidin-3-yl)-1,3-dioxoisoindolin-4-yl)amino)-N-(4-(2-hexylhydrazine-1-carbonyl)benzyl)heptanamide]",90 ± 10
5,"CCCCCCNNC(=O)c1ccc(CNC(=O)CCCCCCCNc2cccc3c2C(=O)N(C2CCC(=O)NC2=O)C3=O)cc1 (stereo not drawn) [Z5, 8-((2-(2,6-Dioxopiperidin-3-yl)-1,3-dioxoisoindolin-4-yl)amino)-N-(4-(2-Hexylhydrazine-1-carbonyl)benzyl)octanamide]",43 ± 17
6,"CCCCCCNNC(=O)c1ccc(CNC(=O)CCCCCCCCCNc2cccc3c2C(=O)N(C2CCC(=O)NC2=O)C3=O)cc1 (stereo not drawn) [Z6, 10-((2-(2,6-Dioxopiperidin-3-yl)-1,3-dioxoisoindolin-4-yl)amino)-N-(4-(2-hexylhydrazine-1-carbonyl)benzyl)decanamide]",43 ± 3
7,"CCCCCCNNC(=O)c1ccc(CNC(=O)CCC(=O)N[C@H](C(=O)N2C[C@H](O)C[C@H]2C(=O)NCc2ccc(-c3scnc3C)cc2)C(C)(C)C)cc1 [Z8, N^1-(4-(2-Hexylhydrazine-1-carbonyl)benzyl)-N^4-((S)-1-((2S,4R)-4-hydroxy-2-((4-(4-methylthiazol-5-yl)benzyl)carbamoyl)pyrrolidin-1-yl)-3,3-dimethyl-1-oxobutan-2-yl)succinimide]",20 ± 1
8,"CCCCCCNNC(=O)c1ccc(CNC(=O)CCCCC(=O)N[C@H](C(=O)N2C[C@H](O)C[C@H]2C(=O)NCc2ccc(-c3scnc3C)cc2)C(C)(C)C)cc1 [Z9, N^1-(4-(2-Hexylhydrazine-1-carbonyl)benzyl)-N^6-((S)-1-((2S,4R)-4-hydroxy-2-((4-(4-methylthiazol-5-yl)benzyl)carbamoyl)pyrrolidin-1-yl)-3,3-dimethyl-1-oxobutan-2-yl)adipamide]",17 ± 8
9,"CCCCCCNNC(=O)c1ccc(CNC(=O)CCCCCCC(=O)N[C@H](C(=O)N2C[C@H](O)C[C@H]2C(=O)NCc2ccc(-c3scnc3C)cc2)C(C)(C)C)cc1 [Z10, N^1-(4-(2-Hexylhydrazine-1-carbonyl)benzyl)-N^8-((S)-1-((2S,4R)-4-hydroxy-2-((4-(4-methylthiazol-5-yl)benzyl)carbamoyl)pyrrolidin-1-yl)-3,3-dimethyl-1-oxobutan-2-yl)octanediamide]",14 ± 5

# Same assay, conditions: Jurkat, read-out: Dmax (HDAC8 degradation)
row,Compound,Dmax [%]
1,"CCCCCCNNC(=O)c1ccc(CNC(=O)CCCCCCNc2cccc3c2C(=O)N(C2CCC(=O)NC2=O)C3=O)cc1 (stereo not drawn) [Z4, 7-((2-(2,6-Dioxopiperidin-3-yl)-1,3-dioxoisoindolin-4-yl)amino)-N-(4-(2-hexylhydrazine-1-carbonyl)benzyl)heptanamide]",88

# Same assay, conditions: read-out: DC50 (HDAC8 degradation); Jurkat cells, 6 h
row,Compound,DC50 [µM]
1,"CCCCCCNNC(=O)c1ccc(CNC(=O)CCCCCCNc2cccc3c2C(=O)N(C2CCC(=O)NC2=O)C3=O)cc1 (stereo not drawn) [Z4, 7-((2-(2,6-Dioxopiperidin-3-yl)-1,3-dioxoisoindolin-4-yl)amino)-N-(4-(2-hexylhydrazine-1-carbonyl)benzyl)heptanamide]",0.0167
